pIC50: −log10 of the molar value. Counter-ions that a name gives are not always drawn.
Legend:
[1] = molecular target: T1, human PHD2 (Homo sapiens (Human), UniProt Q9GZT9); assay: Test 1: human PHD2 inhibitory activity, [14C]-2-oxoglutarate to [14C]-succinic acid radiometric assay with HIF-1α peptide; type: biochemical; details: read-out: Percent inhibition (% at 1 μM)
Experimental: (1) Expression and Preparation of Human PHD2
Human PHD2 was expressed in insect cells (HighFive cells). A registered sequence of human PHD2 (NM_022051) was introduced into the pFastBacl vector (Invitrogen), and the sequence was verified. The vector was introduced into Sf9 insect cells (Invitrogen) to acquire human PHD2 baculovirus. HighFive insect cells (Invitrogen) were infected with this recombinant virus and cultured at 27° C. for 72 hours; thereafter, a cell lysis solution containing various protease inhibitors was added and the cells were disrupted to form a suspension. The suspension of disrupted cells was centrifuged at 4° C. and 100,000×g for 30 minutes and the supernatant was recovered as a cell lysate.
(2) Measurement of Human PHD2 Inhibitory Activity
The activity of human PHD2 enzyme was measured with a substrate which is a 19-residue partial peptide based on the sequence of HIF-1α. Specifically, the conversion of 2-oxoglutarate to succinic acid which would occur simultaneously with the hydroxylation of a proline residue in the peptide with the PHD2 enzyme was utilized. To be more specific, [^14C]-2-oxogiutarate was added to the reaction system to initiate an enzymatic reaction and the [^14C]-2-oxoglutarate remaining after the reaction was bound to 2,4-dinitrophenylhydrazine (DNPH), with the resulting precipitate being removed by passage through a filter. Subsequently, radiation counting was conducted on the resulting [^14C]-succinic acid.
A test compound, HIF-1αpeptide and [^14C]-2-oxoglutarate were preliminarily added onto 96-well plates and reaction was initiated by adding a human PHD2 enzyme solution (4 μg/well). After 15-min incubation at 37° C., a DNPH-containing quench solution was added and the mixture was allowed to stand at room temperature for 30 minutes. Thereafter, an excess of non-radiolabelled 2-oxoglutarate was added and the mixture was allowed to stand at room temperature for 60 minutes. The resulting precipitate was removed by passage through a filter and the radiation count on the [^14C]-succinic acid was quantified (with MicroBeta). Radiation counting was conducted for each well and the human PHD2 inhibitory activity of each test compound was calculated on the basis of the values for the substrate-free group and the test compound-free group.

[2] = molecular target: T1, human PHD2; assay: Test 2: human PHD2 inhibitory activity, fluorescence polarization assay of HIF-1α peptide proline hydroxylation; type: biochemical; details: for inhibition at 1 µM: read-out: Percent inhibition (% at 1 μM)
Outline: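 A 19-mer HIF-1α peptide served as substrate, with the reaction started by 40 ng/well human PHD2 (cell lysate of NM_022051-transfected cells) and run 20 min at 30° C. before EDTA stop. Hydroxylated product bound anti-HIF-OH antibody, read by fluorescence polarization versus no-compound control.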

[3] = test compound's concentration 1 μM, Test 1, [14C]-2-oxoglutarate radiometric assay
[4] = test compound's concentration 1 μM, Test 2, fluorescence polarization assay

T1 sequence (Q9GZT9 whole entry): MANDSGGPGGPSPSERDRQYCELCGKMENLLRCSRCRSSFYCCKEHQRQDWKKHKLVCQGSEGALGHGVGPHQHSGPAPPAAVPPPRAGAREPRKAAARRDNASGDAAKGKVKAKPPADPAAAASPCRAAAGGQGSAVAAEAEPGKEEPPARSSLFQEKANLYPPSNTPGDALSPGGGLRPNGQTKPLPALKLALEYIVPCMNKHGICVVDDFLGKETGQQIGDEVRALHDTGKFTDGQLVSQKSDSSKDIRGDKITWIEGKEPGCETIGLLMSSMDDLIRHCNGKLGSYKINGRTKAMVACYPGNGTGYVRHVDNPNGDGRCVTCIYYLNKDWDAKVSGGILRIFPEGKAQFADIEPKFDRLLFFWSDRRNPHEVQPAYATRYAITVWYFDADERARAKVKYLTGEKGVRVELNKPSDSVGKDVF

Row | Structure (SMILES) | inhibition at 1 µM [1, 3] | inhibition at 1 µM [2, 4] | inhibition at 1 µM [1] | inhibition at 1 µM [2] | pIC50 ([2]; human PHD2, fluorescence polarization assay, 20-min incubation at 30° C.)
1 | O=C(O)CNC(=O)C1=C(O)CC2(CCOCC2)N(Cc2ccc(-c3ccc(C(F)(F)F)cc3)cc2)C1=O [Ex. 1-1, N-[(4-Hydroxy-2-oxo-1-{[4′-(trifluoromethyl)biphenyl-4-yl]methyl}-9-oxa-1-azaspiro[5.5]undec-3-en-3-yl)carbonyl]glycine] | 78% | 94% |  |  | 
2 | O=C(O)CNC(=O)C1=C(O)CC2(COC2)N(Cc2ccc(-c3ccccc3)cc2)C1=O [Ex. 1-2, N-{[5-(Biphenyl-4-ylmethyl)-8-hydroxy-6-oxo-2-oxa-5-azaspiro[3.5]non-7-en-7-yl]carbonyl}glycine] | 94% | 92% |  |  | 
3 | CC1CN(Cc2ccc(OC(F)(F)F)cc2)C(=O)C(C(=O)NCC(=O)O)=C1O (stereo not drawn) [Ex. 1-3, N-({4-Hydroxy-5-methyl-2-oxo-1-[4-(trifluoromethoxy)benzyl]-1,2,5,6-tetrahydropyridin-3-yl}carbonyl)glycine sodium salt] |  |  | 74% | 78% | 
4 | O=C(O)CNC(=O)C1=C(O)C2(CCCCC2)CN(Cc2ccccc2)C1=O [Ex. 1-6] | 50% | 57% |  |  | 
5 | O=C(O)CNC(=O)C1=C(O)C2(CCCCC2)CN(Cc2ccc3ccccc3c2)C1=O [Ex. 1-7] | 54% | 68% |  |  | 
6 | O=C(O)CNC(=O)C1=C(O)C2(CCCCC2)CN(Cc2ccc(-c3ccccc3)cc2)C1=O [Ex. 1-8] | 54% | 87% |  |  | 
7 | O=C(O)CNC(=O)C1=C(O)CC2(CCCC2)N(Cc2ccc(-c3ccccc3)cc2)C1=O [Ex. 1-9] | 88% | 93% |  |  | 
8 | O=C(O)CNC(=O)C1=C(O)CC2(CCOCC2)N(Cc2ccc(-c3ccccc3)cc2)C1=O [Ex. 1-10] | 93% | 92% |  |  | 
9 | O=C(O)CNC(=O)C1=C(O)C2(CCOCC2)CN(Cc2ccc(-c3ccccc3)cc2)C1=O [Ex. 1-11] | 95% | 93% |  |  | 
10 | O=C(O)CNC(=O)C1=C(O)C2(CCCC2)CN(Cc2ccc(-c3ccccc3)cc2)C1=O [Ex. 1-13] | 64% | 81% |  |  | 
11 | O=C(O)CNC(=O)C1=C(O)C2(CCCCCC2)CN(Cc2ccc(-c3ccccc3)cc2)C1=O [Ex. 1-14] | 21% | 36% |  |  | 
12 | O=C(O)CNC(=O)C1=C(O)C2(CCC2)CN(Cc2ccc(-c3ccccc3)cc2)C1=O [Ex. 1-15] | 72% | 86% |  |  | 
13 | CC1(C)CC(O)=C(C(=O)NCC(=O)O)C(=O)N1Cc1ccc(-c2ccccc2)cc1 [Ex. 1-17] | 84% | 85% |  |  | 
14 | O=C(O)CNC(=O)C1=C(O)CCN(Cc2ccccc2)C1=O [Ex. 1-21] | 72% | 73% |  |  | 
15 | O=C(O)CNC(=O)C1=C(O)CCN(Cc2ccc(Br)cc2)C1=O [Ex. 1-23] | 84% | 82% |  |  | 
16 | O=C(O)CNC(=O)C1=C(O)CCN(Cc2cccc(-c3ccccc3)c2)C1=O [Ex. 1-24] | 74% | 84% |  |  | 
17 | O=C(O)CNC(=O)C1=C(O)CCN(Cc2ccccc2-c2ccccc2)C1=O [Ex. 1-25] | 72% | 76% |  |  | 
18 | O=C(O)CNC(=O)C1=C(O)CCN(CC2CCC(c3ccccc3)CC2)C1=O (stereo not drawn) [Ex. 1-26] | 90% |  |  |  | 
19 | CC1(C)CN(Cc2ccc(-c3ccccc3)cc2)C(=O)C(C(=O)NCC(=O)O)=C1O [Ex. 1-27] | 75% | 89% |  |  | 
20 | O=C(O)CNC(=O)C1=C(O)CCN(Cc2ccc(Oc3ccccc3)cc2)C1=O [Ex. 1-28] | 94% | 92% |  |  | 7.06
21 | O=C(O)CNC(=O)C1=C(O)CCN(Cc2ccc3ccccc3c2)C1=O [Ex. 1-29] | 81% | 86% |  |  | 
22 | O=C(O)CNC(=O)C1=C(O)CCN(CCCCCc2ccccc2)C1=O [Ex. 1-30] | 77% | 83% |  |  | 
23 | O=C(O)CNC(=O)C1=C(O)CCN(CCc2ccc(-c3ccccc3)cc2)C1=O [Ex. 1-31] | 89% | 89% |  |  | 
24 | O=C(O)CNC(=O)C1=C(O)CCN(Cc2ccc3cccnc3c2)C1=O [Ex. 1-32] | 78% | 82% |  |  | 
25 | O=C(O)CNC(=O)C1=C(O)CCN(Cc2cccc3ccccc23)C1=O [Ex. 1-33] | 72% | 84% |  |  | 
26 | O=C(O)CNC(=O)C1=C(O)CCN(CCc2ccccc2)C1=O [Ex. 1-34] | 58% | 75% |  |  | 

Row | Structure (SMILES) | inhibition at 1 µM [1, 3] | inhibition at 1 µM [2, 4] | inhibition at 1 µM [1] | inhibition at 1 µM [2] | pIC50 ([2]; human PHD2, fluorescence polarization assay, 20-min incubation at 30° C.)
27 | O=C(O)CNC(=O)C1=C(O)CCN(Cc2ccc(-c3ccccn3)cc2)C1=O [Ex. 1-35] | 81% | 90% |  |  | 
28 | CC(C)(C)c1ccc(-c2ccc(CN3CCC(O)=C(C(=O)NCC(=O)O)C3=O)cc2)cc1 [Ex. 1-36] | 83% | 85% |  |  | 
29 | O=C(O)CNC(=O)C1=C(O)CCN(Cc2ccc(C3CCCCC3)cc2)C1=O [Ex. 1-37] | 87% | 89% |  |  | 
30 | O=C(O)CNC(=O)C1=C(O)CCN(c2ccccc2)C1=O [Ex. 1-38] | 48% | 66% |  |  | 
31 | O=C(O)CNC(=O)C1=C(O)CCN(c2cccc(Oc3ccccc3)c2)C1=O [Ex. 1-39] | 76% | 86% |  |  | 
32 | O=C(O)CNC(=O)C1=C(O)CCN(c2ccc(Oc3ccccc3)cc2)C1=O [Ex. 1-40] | 79% | 91% |  |  | 
33 | O=C(O)CNC(=O)C1=C(O)CCN(Cc2cnc(-c3ccccc3)nc2)C1=O [Ex. 1-41] | 89% | 90% |  |  | 
34 | O=C(O)CNC(=O)C1=C(O)CCN(Cc2ccc(Cc3ccccc3)cc2)C1=O [Ex. 1-42] | 90% | 94% |  |  | 
35 | O=C(O)CNC(=O)C1=C(O)CCN(Cc2cnc(C3CCCCC3)nc2)C1=O [Ex. 1-43] | 74% | 79% |  |  | 
36 | O=C(O)CNC(=O)C1=C(O)CCN(Cc2cnc(-c3ccccc3)s2)C1=O [Ex. 1-44] | 87% | 91% |  |  | 
37 | O=C(O)CNC(=O)C1=C(O)CCN(Cc2cc(-c3ccccc3)no2)C1=O [Ex. 1-45] | 82% | 88% |  |  | 
38 | O=C(O)CNC(=O)C1=C(O)CCN(Cc2ccc3c(c2)CCCC3)C1=O [Ex. 1-46] | 78% | 84% |  |  | 
39 | COc1ccc(CN2CCC(O)=C(C(=O)NCC(=O)O)C2=O)cc1 [Ex. 1-48] | 67% | 79% |  |  | 
40 | O=C(O)CNC(=O)C1=C(O)CC(c2ccccc2)N(Cc2ccccc2)C1=O (stereo not drawn) [Ex. 1-49] | 55% | 55% |  |  | 
41 | O=C(O)CNC(=O)C1=C(O)CC(c2ccccc2)N(Cc2ccc(-c3ccccc3)cc2)C1=O (stereo not drawn) [Ex. 1-50] | 77% | 83% |  |  | 
42 | O=C(O)CNC(=O)C1=C(O)[C@@H]2CCCC[C@@H]2N(Cc2ccc(-c3ccccc3)cc2)C1=O [Ex. 1-51] | 58% | 73% |  |  | 
43 | O=C(O)CNC(=O)C1=C(O)[C@@H]2CCCCC2N(Cc2ccc(-c3ccccc3)cc2)C1=O (stereo partly drawn) [Ex. 1-52] | 58% | 78% |  |  | 
44 | CCc1ccc(CN2CCC(O)=C(C(=O)NCC(=O)O)C2=O)cc1 [Ex. 1-53] | 78% | 78% |  |  | 
45 | O=C(O)CNC(=O)C1=C(O)CCN(Cc2ccc(C(F)(F)F)cc2C(F)(F)F)C1=O [Ex. 1-54] | 60% | 71% |  |  | 
46 | CC(C)(C)c1ccc(CN2CCC(O)=C(C(=O)NCC(=O)O)C2=O)cc1 [Ex. 1-55] | 75% | 79% |  |  | 
47 | O=C(O)CNC(=O)C1=C(O)C(c2ccccc2)CN(Cc2ccc(-c3ccccc3)cc2)C1=O (stereo not drawn) [Ex. 1-57] | 58% | 83% |  |  | 
48 | O=C(O)CNC(=O)C1=C(O)CCN(Cc2cc(C(F)(F)F)cc(C(F)(F)F)c2)C1=O [Ex. 1-59] | 41% | 54% |  |  | 
49 | Cc1ccc(CN2CCC(O)=C(C(=O)NCC(=O)O)C2=O)c(C)c1 [Ex. 1-60] | 66% | 76% |  |  | 
50 | COc1cccc(CN2CCC(O)=C(C(=O)NCC(=O)O)C2=O)c1 [Ex. 1-61] | 58% | 71% |  |  | 
51 | COc1ccc(CN2CCC(O)=C(C(=O)NCC(=O)O)C2=O)c(C)c1 [Ex. 1-62] | 65% | 68% |  |  | 
